From patent publication US20230002367A1, “BIFUNCTIONAL COMPOUNDS” (Hoffmann-La Roche Inc., priority 2019, published 2023) come the findings set out here.

One may read the Emax as the size of the effect at its maximum, as opposed to the concentration needed.

Structures are written as SMILES.

The test concerns the target T1, SMARCA2 (Homo sapiens, UniProt P51531).
T1 construct: endogenous in cells
The test is described as follows: SMARCA2 HiBiT degradation assay (cellular). It is filed as cell-based. The following applies: for Emax: A549, Emax = amount of residual protein remaining in the cell following compound treatment; for DC50: SMARCA2 HiBiT cells, luminescence readout, 11-point titration from 10 μM, 6 hours or 16 hours, read-out: HiBit A549 SMARCA2 IP.

T1 sequence (P51531 whole entry): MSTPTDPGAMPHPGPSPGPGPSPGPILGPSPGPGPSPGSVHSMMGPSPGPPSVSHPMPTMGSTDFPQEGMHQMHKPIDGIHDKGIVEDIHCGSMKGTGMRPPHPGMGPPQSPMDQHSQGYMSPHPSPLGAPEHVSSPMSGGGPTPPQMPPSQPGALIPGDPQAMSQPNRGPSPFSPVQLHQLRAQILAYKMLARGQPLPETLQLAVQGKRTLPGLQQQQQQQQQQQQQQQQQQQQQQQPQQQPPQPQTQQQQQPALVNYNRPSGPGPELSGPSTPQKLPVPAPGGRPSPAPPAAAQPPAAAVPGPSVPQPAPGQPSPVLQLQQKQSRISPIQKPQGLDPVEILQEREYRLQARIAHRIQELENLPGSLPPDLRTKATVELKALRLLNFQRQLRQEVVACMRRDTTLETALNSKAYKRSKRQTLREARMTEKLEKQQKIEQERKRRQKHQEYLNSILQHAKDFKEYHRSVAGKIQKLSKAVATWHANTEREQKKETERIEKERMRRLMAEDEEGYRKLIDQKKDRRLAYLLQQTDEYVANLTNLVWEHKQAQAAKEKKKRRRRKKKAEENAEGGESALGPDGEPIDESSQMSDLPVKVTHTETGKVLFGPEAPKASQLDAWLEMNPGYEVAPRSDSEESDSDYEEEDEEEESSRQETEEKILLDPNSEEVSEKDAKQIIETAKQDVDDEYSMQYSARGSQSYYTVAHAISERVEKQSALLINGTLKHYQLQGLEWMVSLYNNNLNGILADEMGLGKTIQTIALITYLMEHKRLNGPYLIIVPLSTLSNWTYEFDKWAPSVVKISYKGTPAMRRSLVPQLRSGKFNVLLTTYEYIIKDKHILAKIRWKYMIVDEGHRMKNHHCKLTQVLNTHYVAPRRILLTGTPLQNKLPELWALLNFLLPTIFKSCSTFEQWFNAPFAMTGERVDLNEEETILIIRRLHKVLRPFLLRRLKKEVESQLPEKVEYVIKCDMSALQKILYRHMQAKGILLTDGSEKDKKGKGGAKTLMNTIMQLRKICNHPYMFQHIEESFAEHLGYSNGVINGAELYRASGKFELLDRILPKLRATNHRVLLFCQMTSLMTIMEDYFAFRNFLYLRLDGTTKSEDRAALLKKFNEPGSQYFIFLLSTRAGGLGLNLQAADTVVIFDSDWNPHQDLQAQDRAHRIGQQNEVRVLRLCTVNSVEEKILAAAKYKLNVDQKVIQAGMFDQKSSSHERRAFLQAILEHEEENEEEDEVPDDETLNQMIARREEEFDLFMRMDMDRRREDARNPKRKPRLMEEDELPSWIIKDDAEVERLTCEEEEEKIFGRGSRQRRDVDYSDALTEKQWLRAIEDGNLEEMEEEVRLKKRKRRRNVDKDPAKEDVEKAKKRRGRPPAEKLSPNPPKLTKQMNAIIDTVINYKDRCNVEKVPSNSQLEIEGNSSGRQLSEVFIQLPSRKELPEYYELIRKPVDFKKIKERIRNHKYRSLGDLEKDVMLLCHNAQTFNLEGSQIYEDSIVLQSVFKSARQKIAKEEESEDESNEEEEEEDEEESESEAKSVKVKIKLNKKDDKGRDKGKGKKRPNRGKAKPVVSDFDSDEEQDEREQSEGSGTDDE

As to `Cc1ncsc1-c1ccc(CNC(=O)[C@@H]2C[C@@H](O)CN2C(=O)[C@@H](NC(=O)CCCCCC(=O)NC(COc2cc(-c3ccccc3O)nnc2N)c2ccccc2)C(C)(C)C)cc1` (mixture of isomers) [Example 62, N-[2-[3-amino-6-(2-hydroxyphenyl)pyridazin-4-yl]oxy-1-phenyl-ethyl]-N′-[rac-(1S)-2,2-dimethyl-1-[rac-(2S,4R)-4-hydroxy-2-[[4-(4-methylthiazol-5-yl)phenyl]methylcarbamoyl]pyrrolidine-1-carbonyl]propyl]heptanediamide], the maximal response (Emax) was 54% and the DC50 was determined as 2610 nM.
The corresponding values for `Cc1ncsc1-c1ccc(CNC(=O)[C@@H]2C[C@@H](O)CN2C(=O)[C@@H](NC(=O)CCCCCCCCC(=O)NC(COc2cc(-c3ccccc3O)nnc2N)c2ccccc2)C(C)(C)C)cc1` (mixture of isomers) [Example 63, N-[2-[3-amino-6-(2-hydroxyphenyl)pyridazin-4-yl]oxy-1-phenyl-ethyl]-N′-[rac-(1S)-2,2-dimethyl-1-[rac-(2S,4R)-4-hydroxy-2-[[4-(4-methylthiazol-5-yl)phenyl]methylcarbamoyl]pyrrolidine-1-carbonyl]propyl]decanediamide] are 48% and 798 nM.
The corresponding values for `Cc1ncsc1-c1ccc(CNC(=O)[C@@H]2C[C@@H](O)CN2C(=O)[C@@H](NC(=O)CCCCCCCCC(=O)N2CC(Oc3cc(-c4ccccc4O)nnc3N)CC(c3ccccc3)C2)C(C)(C)C)cc1` (mixture of isomers) [Example 65, rac-(2S,4R)-4-hydroxy-N-[[4-(4-methylthiazol-5-yl)phenyl]methyl]-1-[rac-(2S)-2-[[10-[3-[3-amino-6-(2-hydroxyphenyl)pyridazin-4-yl]oxy-5-phenyl-1-piperidyl]-10-oxo-decanoyl]amino]-3,3-dimethyl-butanoyl]pyrrolidine-2-carboxamide] are 24% and 1030 nM.
For `Cc1ncsc1-c1ccc(CNC(=O)[C@@H]2C[C@@H](O)CN2C(=O)[C@@H](NC(=O)CCCCCC(=O)N2CC(Oc3cc(-c4ccccc4O)nnc3N)CC(c3ccccc3)C2)C(C)(C)C)cc1` (mixture of isomers) [Example 66, Trans rac-(2S,4R)-4-hydroxy-N-[[4-(4-methylthiazol-5-yl)phenyl]methyl]-1-[rac-(2S)-2-[[7-[3-[3-amino-6-(2-hydroxyphenyl)pyridazin-4-yl]oxy-5-phenyl-1-piperidyl]-7-oxo-heptanoyl]amino]-3,3-dimethyl-butanoyl]pyrrolidine-2-carboxamide] the same measures were 49% and 2020 nM.
Consider `Cc1ncsc1-c1ccc(CNC(=O)[C@@H]2C[C@@H](O)CN2C(=O)[C@@H](NC(=O)CCCCCCCCC(=O)N2CC(Oc3cc(-c4ccccc4O)nnc3N)CC(c3ccccc3)C2)C(C)(C)C)cc1` (mixture of isomers) [Example 67, Trans rac-(2S,4R)-4-hydroxy-N-[[4-(4-methylthiazol-5-yl)phenyl]methyl]-1-[rac-(2S)-2-[[10-[3-[3-amino-6-(2-hydroxyphenyl)pyridazin-4-yl]oxy-5-phenyl-1-piperidyl]-10-oxo-decanoyl]amino]-3,3-dimethyl-butanoyl]pyrrolidine-2-carboxamide], for which the DC50 stood at 839 nM. The “HiBit A549 SMARCA2 Emax (%)” value (Emax = amount of residual protein remaining in the cell following compound treatment) was 29%.
In the case of `Cc1ncsc1-c1ccc([C@H](C)NC(=O)[C@@H]2C[C@@H](O)CN2C(=O)[C@@H](NC(=O)CCC(=O)N2CCN(CCOc3cccc(N4CCCC(Oc5cc(-c6ccccc6O)nnc5N)C4)c3)CC2)C(C)(C)C)cc1` (mixture of isomers) [Example 69, rac-(2S,4R)-4-hydroxy-1-[rac-(2S)-2-[[4-[4-[2-[3-[3-[3-amino-6-(2-hydroxyphenyl)pyridazin-4-yl]oxy-1-piperidyl]phenoxy]ethyl]piperazin-1-yl]-4-oxo-butanoyl]amino]-3,3-dimethyl-butanoyl]-N-[rac-(1S)-1-[4-(4-methylthiazol-5-yl)phenyl]ethyl]pyrrolidine-2-carboxamide], the Emax stood at 60% and the DC50 is 2110 nM.
For `Cc1ncsc1-c1ccc([C@H](C)NC(=O)[C@@H]2C[C@@H](O)CN2C(=O)[C@@H](NC(=O)CCCCCC(=O)N2CCN(CCOc3cccc(N4CCCC(Oc5cc(-c6ccccc6O)nnc5N)C4)c3)CC2)C(C)(C)C)cc1` (mixture of isomers) [Example 70, rac-(2S,4R)-4-hydroxy-1-[rac-(2S)-2-[[7-[4-[2-[3-[3-[3-amino-6-(2-hydroxyphenyl)pyridazin-4-yl]oxy-1-piperidyl]phenoxy]ethyl]piperazin-1-yl]-7-oxo-heptanoyl]amino]-3,3-dimethyl-butanoyl]-N-[rac-(1S)-1-[4-(4-methylthiazol-5-yl)phenyl]ethyl]pyrrolidine-2-carboxamide] the same measures were 50% and 1180 nM.
The corresponding values for `Cc1ncsc1-c1ccc([C@H](C)NC(=O)[C@@H]2C[C@@H](O)CN2C(=O)[C@@H](NC(=O)CCCCCCCCC(=O)N2CCN(CCOc3cccc(N4CCCC(Oc5cc(-c6ccccc6O)nnc5N)C4)c3)CC2)C(C)(C)C)cc1` (mixture of isomers) [Example 71, rac-(2S,4R)-4-hydroxy-1-[rac-(2S)-2-[[10-[4-[2-[3-[3-[3-amino-6-(2-hydroxyphenyl)pyridazin-4-yl]oxy-1-piperidyl]phenoxy]ethyl]piperazin-1-yl]-10-oxo-decanoyl]amino]-3,3-dimethyl-butanoyl]-N-[rac-(1S)-1-[4-(4-methylthiazol-5-yl)phenyl]ethyl]pyrrolidine-2-carboxamide] are 38% and 522 nM.
The corresponding values for `Cc1ncsc1-c1ccc([C@H](C)NC(=O)[C@@H]2C[C@@H](O)CN2C(=O)[C@@H](NC(=O)CCCCCCCCCCC(=O)N2CCN(CCOc3cccc(N4CCCC(Oc5cc(-c6ccccc6O)nnc5N)C4)c3)CC2)C(C)(C)C)cc1` (mixture of isomers) [Example 72, rac-(2S,4R)-4-hydroxy-1-[rac-(2S)-2-[[12-[4-[2-[3-[3-[3-amino-6-(2-hydroxyphenyl)pyridazin-4-yl]oxy-1-piperidyl]phenoxy]ethyl]piperazin-1-yl]-12-oxo-dodecanoyl]amino]-3,3-dimethyl-butanoyl]-N-[rac-(1S)-1-[4-(4-methylthiazol-5-yl)phenyl]ethyl]pyrrolidine-2-carboxamide] are 35% and 421 nM.
As for `Cc1ncsc1-c1ccc([C@H](C)NC(=O)[C@@H]2C[C@@H](O)CN2C(=O)[C@@H](NC(=O)CCCCCCNC(=O)C(c2ccccc2)n2cc(-c3cc(-c4ccccc4O)nnc3N)cn2)C(C)(C)C)cc1` (mixture of isomers) [Example 75, rac-(2S,4R)-4-hydroxy-1-[rac-(2S)-2-[7-[[2-[4-[3-amino-6-(2-hydroxyphenyl)pyridazin-4-yl]pyrazol-1-yl]-2-phenyl-acetyl]amino]heptanoylamino]-3,3-dimethyl-butanoyl]-N-[rac-(1S)-1-[4-(4-methylthiazol-5-yl)phenyl]ethyl]pyrrolidine-2-carboxamide], the Emax worked out at 26% and the DC50 was 777 nM.
